Measured values as given in US6335013B1, “Methods and materials relating to CD39-like polypeptides” (Hyseq, Inc., priority 1999, dated 2002).

T1: CD39-L4 (Homo sapiens, UniProt O75356)
T1 construct: to allow purification of the secreted mature form of the protein; made in house; host or cells: COS-7 cells, transient transfection (pcDNA3.1); protein captured from the medium on Nickel-NTA resin
T1 sequence (O75356 25-428): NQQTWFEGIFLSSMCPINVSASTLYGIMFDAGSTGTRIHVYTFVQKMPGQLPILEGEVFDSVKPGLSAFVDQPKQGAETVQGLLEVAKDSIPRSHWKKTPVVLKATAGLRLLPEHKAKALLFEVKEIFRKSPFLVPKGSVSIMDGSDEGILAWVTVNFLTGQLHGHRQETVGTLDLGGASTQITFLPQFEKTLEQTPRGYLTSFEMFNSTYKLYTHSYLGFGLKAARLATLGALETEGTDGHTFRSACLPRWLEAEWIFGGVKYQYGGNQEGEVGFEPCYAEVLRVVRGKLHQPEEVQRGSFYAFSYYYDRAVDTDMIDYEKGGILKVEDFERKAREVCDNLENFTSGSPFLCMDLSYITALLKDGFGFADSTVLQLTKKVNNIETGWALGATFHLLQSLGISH


Key:
[1] = target: T1, CD39-L4; test: Substrate (nucleotide) specificity of CD39-L4, inorganic phosphate release; assay type: biochemical; details: nucleotide 1 mM; for % OF CONTROL, substrate specificity of CD39-L4: relative to ADP, buffer A with 1 mM EGTA, 2 mM CaCl2 and MgCl2
[2] = system: CD39-L2; test: Substrate (nucleotide) specificity of CD39-L2, inorganic phosphate release; assay type: biochemical, human; details: for % OF CONTROL, substrate specificity of CD39-L2: relative to ADP, nucleotide 1 mM, buffer A with 1 mM EGTA, 3 mM CaCl2 and 3 mM MgCl2, 37° C., 30 min; for enzymatic activity relative to ADP hydrolysis: assays repeated with 15 mM ADP and 15 mM CaCl2
[3] = target: T1, CD39-L4; test: Inhibition of CD39-L4 ADPase activity by ATPase/phosphatase inhibitors and chelators; assay type: biochemical; details: concentrations as in Table 1
[4] = system: CD39-L2; test: Inhibition of CD39-L2 ADPase activity by ATPase/phosphatase inhibitors and chelators; assay type: biochemical, human; details: concentrations as in Table 3
[5] = target: the molecule itself; test: Western blot of SDS-PAGE, self-association (dimer)
[6] = Kinetic characteristics of CD39-L2 ADP hydrolysis; assay type: biochemical
[7] = ADPase activity of CD39-L2 from transfected COS-7 cells, stimulation by divalent cations and Ca2+ titration; assay type: biochemical
[8] = ADPase and ATPase activity of CD39L4 wild type and ACR mutants, inorganic phosphate released; assay type: biochemical
[9] = 15 mM CaCl2, ADP 0.75-18 mM, 15 min, 37° C.

| Molecule | % OF CONTROL, substrate specificity of CD39-L4 [1] [%] | inhibition of Ca2+ and Mg2+ stimulated CD39-L4 ADPase activity, in words [3] | % OF CONTROL, substrate specificity of CD39-L2 [2] [%] | inhibition of CD39-L2 ADPase activity, in words [4] | further results |
| --- | --- | --- | --- | --- | --- |
| Nc1ncnc2c1ncn2[C@@H]1O[C@H](COP(=O)(O)OP(=O)(O)OP(=O)(O)OP(=O)(O)OP(=O)(O)OC[C@H]2O[C@@H](n3cnc4c(N)ncnc43)[C@H](O)[C@@H]2O)[C@@H](O)[C@H]1O [Ap5A] | – | did not inhibit activity | – | did not inhibit activity | – |
| Nc1ccn([C@@H]2O[C@H](COP(=O)(O)OP(=O)(O)O)[C@@H](O)[C@H]2O)c(=O)n1 [CDP] | 268 ± 11 | – | 282 ± 18 | – | enzymatic activity relative to ADP hydrolysis [2]: 73% |
| O=C(O)CN(CCOCCOCCN(CC(=O)O)CC(=O)O)CC(=O)O [EGTA] | – | significantly inhibited activity | – | inhibited CD39-L2 activity | – |
| [N-]=[N+]=[N-] [N3^−] | – | did not significantly inhibit | – | not inhibited | – |
| CCN1C(=O)C=CC1=O [NEM] | – | did not significantly inhibit | – | not inhibited | – |
| C[C@@H]1O[C@@H](O[C@H]2C[C@@H](O)[C@]3(CO)[C@H]4[C@H](O)C[C@]5(C)[C@@H](C6=CC(=O)OC6)CC[C@]5(O)[C@@H]4CC[C@]3(O)C2)[C@H](O)[C@H](O)[C@H]1O [Ouabain] | – | did not significantly inhibit | – | not inhibited | – |
| O=c1ccn([C@@H]2O[C@H](COP(=O)(O)OP(=O)(O)O)[C@@H](O)[C@H]2O)c(=O)[nH]1 [UDP] | 408 ± 14 | – | 303 ± 5 | – | hydrolysis of the nucleotide by CD39-L4, in words [1]: very efficiently hydrolyzed; enzymatic activity relative to ADP hydrolysis [2]: 228% |
| O=c1ccn([C@@H]2O[C@H](COP(=O)(O)OP(=O)(O)OP(=O)(O)O)[C@@H](O)[C@H]2O)c(=O)[nH]1 [UTP] | 12 ± 4 | – | 13 ± 1 | – | – |
| CD39L4 Cys39 to Ser mutant with a myc epitope and a 6 His tag at the C-terminus (enzyme, not shown: small tags and cut ends, also called Ser39 mutant; cys-mutant CD39L4) HRNQQTWFEGIFLSSMSPINVSASTLYGIMFDAGSTGTRIHVYTFVQKMPGQLPILEGEVFDSVKPGLSAFVDQPKQGAETVQGLLEVAKDSIPRSHWKKTPVVLKATAGLRLLPEHKAKALLFEVKEIFRKSPFLVPKGSVSIMDGSDEGILAWVTVNFLTGQLHGHRQETVGTLDLGGASTQITFLPQFEKTLEQTPRGYLTSFEMFNSTYKLYTHSYLGFGLKAARLATLGALETEGTDGHTFRSACLPRWLEAEWIFGGVKYQYGGNQEGEVGFEPCYAEVLRVVRGKLHQPEEVQRGSFYAFSYYYDRAVDTDMIDYEKGGILKVEDFERKAREVCDNLENFTSGSPFLCMDLSYITALLKDGFGFADSTVLQLTKKVNNIETGWALGATFHLLQSLGISH | – | – | – | – | binding result [5]: no binding |
| CD39L4 Cys39 to Ala mutant with a myc epitope and a 6 His tag at the C-terminus (enzyme, not shown: small tags and cut ends, also called Ala39 mutant; cys-mutant CD39L4) HRNQQTWFEGIFLSSMAPINVSASTLYGIMFDAGSTGTRIHVYTFVQKMPGQLPILEGEVFDSVKPGLSAFVDQPKQGAETVQGLLEVAKDSIPRSHWKKTPVVLKATAGLRLLPEHKAKALLFEVKEIFRKSPFLVPKGSVSIMDGSDEGILAWVTVNFLTGQLHGHRQETVGTLDLGGASTQITFLPQFEKTLEQTPRGYLTSFEMFNSTYKLYTHSYLGFGLKAARLATLGALETEGTDGHTFRSACLPRWLEAEWIFGGVKYQYGGNQEGEVGFEPCYAEVLRVVRGKLHQPEEVQRGSFYAFSYYYDRAVDTDMIDYEKGGILKVEDFERKAREVCDNLENFTSGSPFLCMDLSYITALLKDGFGFADSTVLQLTKKVNNIETGWALGATFHLLQSLGISH | – | – | – | – | binding result [5]: no binding |
| CD39-L2myc-His (protein) MKKGIRYETSRKTSYIFQQPQHGPWQTRMRKISNHGSLRVAKVAYPLGLCVGVFIYVAYIKWHRATATQAFFSITRAAPGARWGQQAHSPLGTAADGHEVFYGIMFDAGSTGTRVHVFQFTRPPRETPTLTHETFKAVKPGLSAYADDVEKSAQGIRELLDVAKQDIPFDFWKATPLVLKATAGLRLLPGEKAQKLLQKVKEVFKASPFLVGDDCVSIMNGTDEGVSAWITINFLTGSLKTPGGSSVGMLDLGGGSTQIAFLPRVEGTLQASPPGYLTALRMFNRTYKLYSYSYLGLGLMSARLAILGGVEGQPAKDGKELVSPCLSPSFKGEWEHAEVTYRVSGQKAAASLHELCAARVSEVLQNRVHRTEEVKHVDFYAFSYYYDLAAGVGLIDAEKGGSLVVGDFEIAAKYVCRTLETQPQSSPFSCMDLTYVSLLLQEFGFPRSKVLKLTRKIDNVETSWALGAIFHYIDSLNRQKSPAS | – | – | – | – | K (Hill's Equation) [6, 9]: 364.5; cooperativity, n (Hill's Equation) [6, 9]: 2.48; Vmax of ADP hydrolysis ([6]; 15 mM CaCl2, ADP 0.75-18 mM, 15 min, 37° C., 3.5 ng protein per reaction): 1028 pmol/min; substrate at half-maximal velocity [S]0.5 ([6]; [S]0.5=K^1/n): 10.6 mM; stimulation of ADPase activity by Ca2+ ([7]; 15 mM ADP, CaCl2 added to 15 mM): 17 fold; stimulation of ADPase activity by Mg2+ ([7]; 15 mM ADP, MgCl2 added to 15 mM): 8 fold; fold increase in ADPase activity over cells transfected with vector alone ([7]; CD39-L2myc-His from COS-7 medium on Nickel-NTA resin, 1 mM ADP, no added cation): 8.7 fold; further fold increase in ADPase activity when Ca2+ and Mg2+ added ([7]; Ca2+ and Mg2+ added, 1 mM ADP): 2-3 fold; effect of high Ca2+ concentration on ADPase activity ([7]; CaCl2 2-15 mM, low substrate concentration, 37° C., 20 min): no inhibitory effect |
| ACR III: variant CD39-L4 with substitutions D168→T, S170→Q and L175→F (protein) MATSWGTVFFMLVVSCVCSAVSHRNQQTWFEGIFLSSMCPINVSASTLYGIMFDAGSTGTRIHVYTFVQKMPGQLPILEGEVFDSVKPGLSAFVDQPKQGAETVQGLLEVAKDSIPRSHWKKTPVVLKATAGLRLLPEHKAKALLFEVKEIFRKSPFLVPKGSVSIMTGQDEGIFAWVTVNFLTGQLHGHRQETVGTLDLGGASTQITFLPQFEKTLEQTPRGYLTSFEMFNSTYKLYTHSYLGFGLKAARLATLGALETEGTDGHTFRSACLPRWLEAEWIFGGVKYQYGGNQEGEVGFEPCYAEVLRVVRGKLHQPEEVQRGSFYAFSYYYDRAVDTDMIDYEKGGILKVEDFERKAREVCDNLENFTSGSPFLCMDLSYITALLKDGFGFADSTVLQLTKKVNNIETGWALGATFHLLQSLGISH | – | – | – | – | hydrolysis of ADP, in words ([8]; ADP as substrate): hydrolyze ADP; hydrolysis of ATP, in words ([8]; ATP as substrate): neither the CD39L4 nor the CD39L4 mutant, ACR III, catalyzed hydrolysis; ADPase activity compared to wild type CD39-L4 ([8]; protein from COS-7 medium, 1 mM ADP, increase due to amount of protein, not specific activity): six-fold over wild type |

Now from value to molecule, other results behind:

| % OF CONTROL, substrate specificity of CD39-L4 [1] [%] | inhibition of Ca2+ and Mg2+ stimulated CD39-L4 ADPase activity, in words [3] | Molecule | % OF CONTROL, substrate specificity of CD39-L2 [2] [%] | inhibition of CD39-L2 ADPase activity, in words [4] | further results |
| --- | --- | --- | --- | --- | --- |
| 100 ± 15 | – | Nc1ncnc2c1ncn2[C@@H]1O[C@H](COP(=O)(O)OP(=O)(O)O)[C@@H](O)[C@H]1O [ADP, Adenosine diphosphate] | 100 ± 8 | – | rate of ADP hydrolysis by CD39-L4 relative to ATP [1]: approximately twenty-fold higher than ATP |
| 5 ± 1 | – | Nc1ncnc2c1ncn2[C@@H]1O[C@H](COP(=O)(O)OP(=O)(O)OP(=O)(O)O)[C@@H](O)[C@H]1O [ATP, Adenosine triphosphate] | 16 ± 2 | – | hydrolysis of the nucleotide by CD39-L4, in words [1]: poorest substrate |
| 26 ± 2 | – | Nc1ccn([C@@H]2O[C@H](COP(=O)(O)OP(=O)(O)OP(=O)(O)O)[C@@H](O)[C@H]2O)c(=O)n1 [CTP] | 44 ± 4 | – | – |
| – | significantly inhibited activity | O=C(O)CN(CCN(CC(=O)O)CC(=O)O)CC(=O)O [EDTA] | – | inhibited CD39-L2 activity | – |
| – | did not inhibit activity | F [F^−] | – | partially inhibited activity | – |
| 334 ± 38 | – | Nc1nc2c(ncn2[C@@H]2O[C@H](COP(=O)(O)OP(=O)(O)O)[C@@H](O)[C@H]2O)c(=O)[nH]1 [GDP] | 338 ± 52 | – | hydrolysis of the nucleotide by CD39-L4, in words [1]: very efficiently hydrolyzed; enzymatic activity relative to ADP hydrolysis [2]: 280% |
| 34 ± 1 | – | Nc1nc2c(ncn2[C@@H]2O[C@H](COP(=O)(O)OP(=O)(O)OP(=O)(O)O)[C@@H](O)[C@H]2O)c(=O)[nH]1 [GTP] | 39 ± 1 | – | – |
